Source: patent US7285555B2, “6-aryl-7-halo-imidazo[1,2-a]pyrimidines as anticancer agents” (Wyeth Holdings Corporation, priority 2003, dated 2007)

Assays:
KB cells [1] = experiment: MTS cytotoxicity test procedure with KB cells; format: cell-based; conditions: Homo sapiens, MTS assay, means of 2 independent experiments
Source text: (§1) Human cancer cell lines, unless otherwise noted, are obtained from the American Type Culture Collection (Rockville, Md.). […]
(§2) The MTS assay, which is sold in kit form by Promega (Madison, Wis.; CellTiter 96 AQueous Non-Radioactive Cell Proliferation Assay), is based on the conversion by viable cells, but not by dead cells, of the tetrazolium salt, MTS (3-(4,5-dimethylthiazol-2-yl)-5-(3-carboxymethoxyphenyl)-2-(4-sulphophenyl)-2H-tetrazolium, inner salt), into a water-soluble colored formazan which is detected by spectrophotometry. […] For the test procedure, cells are harvested by trypsinization (or, in the case of non-adherent cells, by simple resuspension), washed, counted and distributed to wells of 96-well flat-bottom microtiter plates at 1000 cells per well in 200 μL of medium. […]
(§3) After three days of culture with test compounds (day 5 overall), the MTS assay is done on all wells of the experimental plates. The absorbance values of the quadruplicate sample wells are averaged and divided by the average of the “time 0” values. […]

HL-60 cells = experiment: MTS cytotoxicity test procedure with HL-60 cells; format: cell-based; conditions: Homo sapiens, MTS assay, means of 2 independent experiments
Source text: as §1, §2, §3

KB cells [2] = experiment: SRB cytotoxicity test procedure with KB cells; format: cell-based; conditions: Homo sapiens, SRB assay, means of 2 independent experiments
Source text: as §1
The SRB standard cytotoxicity assay is done according to previously reported methods (Discafani, C. M., Carroll, M. L., Floyd Jr., M. B. F., Hollander, I. J., Husain, Z., Johnson, B. D., Kitchen, D., May, M. K., Malo, M. S., Minnick Jr., A. A., Nilakantan, R., Shen, R., Wang Y-F., Wissner, A., Greenberger, L. M. Irreversible inhibition of epidermal growth factor receptor tyrosine kinase with in vivo activity by N-[4-[3-bromophenyl)amino]-6-quinaxolinyl]-2-butynamide (CL-387,785). […] Absorbance is read on a Victor V multi-label plate reader (Perkin Elmer, Gaithersburg, Md.). […]

KB-8-5 cells = experiment: SRB cytotoxicity test procedure with KB-8-5 cells; format: cell-based, human; conditions: SRB assay
Source text: (§4) Human cancer cell lines, unless otherwise noted, are obtained from the American Type Culture Collection (Rockville, Md.). The following drug-sensitive parental cell lines, and their derived drug-resistant counterparts, are obtained from the originators as listed: (a) S1 (parental line from a subclone of human colon carcinoma line LS174T) and derived S1-M1-3.2 (herein called S1-M1) which expresses the MXR drug transporter protein, are provided by Dr. L. Greenberger, Wyeth Research (Rabindran, S. K., He, H., Singh, M., Brown, E., Collins, K. I., Annable, T., and Greenberger, L. M. Reversal of a novel multidrug resistance mechanism in human colon carcinoma cells by fumitremorgin C. Cancer Res., 58: 5850-5858,1998); (b) parental HL-60 human promyelocytic leukemia line and derived HL-60/ADR, which expresses the MRP1 drug transporter protein, are provided by Dr. M. Center, University of Kansas (McGrath, T., and Center, M. S. Adriamycin resistance in HL60 cells in the absence of detectable P-glycoprotein. Biochem. Biophys. […] J. Biol. Chem., 261: 7762-7770, 1986) via Dr. L. Greenberger, Wyeth Research.
The SRB standard cytotoxicity assay is done according to previously reported methods (Discafani, C. M., Carroll, M. L., Floyd Jr., M. B. F., Hollander, I. J., Husain, Z., Johnson, B. D., Kitchen, D., May, M. K., Malo, M. S., Minnick Jr., A. A., Nilakantan, R., Shen, R., Wang Y-F., Wissner, A., Greenberger, L. M. Irreversible inhibition of epidermal growth factor receptor tyrosine kinase with in vivo activity by N-[4-[3-bromophenyl)amino]-6-quinaxolinyl]-2-butynamide (CL-387,785). Biochem. Pharmacol., 57: 917-925, 1999). Briefly, cells are plated in 100 μL of medium in 96-well flat-bottom microtiter plates in the morning of day 1 and allowed to adhere to the plates for 2-6 hr. Compounds are serially diluted into medium as 2× stocks and 100 μL of these stocks are added to cells in duplicate. Compounds are incubated with cells for 3 days. At the end of the incubation period the sulforhodamine B (SRB) assay, which measures protein content as an assessment of cell survival, is performed as described previously (Skehan, P., Storeng, R., Scudiero, D., Monks, A., McMahon, J., Vistica, D., Warren, J. T., Bokesch, H., Kenney, S., Boyd, M. R. New calorimetric cytotoxicity assay for anticancer-drug screening. J. Natl. Cancer Inst., 82:1107-1112, 1990) with some modifications. Medium is gently decanted from plates and replaced with 200 μL per well of cold serum-free medium containing a final concentration of 10% trichloroacetic acid. The plates are incubated for 1 hr at 40, washed 5 times in cold distilled water, and air-dried overnight. […] Absorbance is read on a Victor V multi-label plate reader (Perkin Elmer, Gaithersburg, Md.). […]

KB-V1 cells = experiment: SRB cytotoxicity test procedure with KB-V1 cells; format: cell-based, human; conditions: SRB assay; for Ratio VI/KB: IC50 on KB VI cells/IC50 on KB cells
Source text: as §4
The SRB standard cytotoxicity assay is done according to previously reported methods (Discafani, C. M., Carroll, M. L., Floyd Jr., M. B. F., Hollander, I. J., Husain, Z., Johnson, B. D., Kitchen, D., May, M. K., Malo, M. S., Minnick Jr., A. A., Nilakantan, R., Shen, R., Wang Y-F., Wissner, A., Greenberger, L. M. Irreversible inhibition of epidermal growth factor receptor tyrosine kinase with in vivo activity by N-[4-[3-bromophenyl)amino]-6-quinaxolinyl]-2-butynamide (CL-387,785). Biochem. Pharmacol., 57: 917-925, 1999). Briefly, cells are plated in 100 μL of medium in 96-well flat-bottom microtiter plates in the morning of day 1 and allowed to adhere to the plates for 2-6 hr. Compounds are serially diluted into medium as 2× stocks and 100 μL of these stocks are added to cells in duplicate. Compounds are incubated with cells for 3 days. At the end of the incubation period the sulforhodamine B (SRB) assay, which measures protein content as an assessment of cell survival, is performed as described previously (Skehan, P., Storeng, R., Scudiero, D., Monks, A., McMahon, J., Vistica, D., Warren, J. T., Bokesch, H., Kenney, S., Boyd, M. R. New calorimetric cytotoxicity assay for anticancer-drug screening. J. Natl. Cancer Inst., 82:1107-1112, 1990) with some modifications. Medium is gently decanted from plates and replaced with 200 μL per well of cold serum-free medium containing a final concentration of 10% trichloroacetic acid. The plates are incubated for 1 hr at 40, washed 5 times in cold distilled water, and air-dried overnight. The fixed cells are stained for 10 min with 80 μL per well of 0.04% SRB solution prepared in 1% glacial acetic acid. Staining solution is decanted, plates are washed 5 times in 1% glacial acetic acid, and then air-dried until completely dry. Stained cell product is dissolved in 150 μL per well of 10 mM Trizma Base with shaking for 20 minutes. Absorbance is read on a Victor V multi-label plate reader (Perkin Elmer, Gaithersburg, Md.).
The KB lines express different amounts of the P-glycoprotein (MDR1) membrane pump which produces resistance to the action of many cytotoxic compounds, including paclitaxel and vincristine. The parental KB line expresses no P-glycoprotein, KB-8-5 expresses moderate levels of the protein, and KB-V1 expresses very high levels.

| SMILES | IC50 (KB cells [1]) [nM] | IC50 (HL-60 cells) [nM] | IC50 (KB cells [2]) [nM] | IC50 (KB-8-5 cells; Homo sapiens, KB 8.5 cells, means of 2 independent experiments) [nM] | Ratio 8.5/KB (KB-8-5 cells; IC50 on KB 8.5 cells/IC50 on KB cells) | IC50 (KB-V1 cells; Homo sapiens, KB-V1, KB VI cells, means of 2 independent experiments) [nM] | Ratio VI/KB (KB-V1 cells) | Ratio VI/KB (KB-V1 cells; listed as paclitaxel) |
| --- | --- | --- | --- | --- | --- | --- | --- | --- |
| CN(C)CCCOc1cc(F)c(-c2c(Cl)nc3nccn3c2C2CCCCCC2)c(F)c1 [Example 6, 3-[4-(7-Chloro-5-cycloheptylimidazo[1,2-a]pyrimidin-6-yl)-3,5-difluorophenoxy]-N,N-dimethylpropan-1-amine] | 44 | 53 | – | – | – | – | – | – |
| CC(=O)O[C@H]1C(=O)[C@@]2(C)[C@H]([C@H](OC(=O)c3ccccc3)[C@]3(O)C[C@H](OC(=O)[C@H](O)[C@@H](NC(=O)c4ccccc4)c4ccccc4)C(C)=C1C3(C)C)[C@]1(OC(C)=O)CO[C@@H]1C[C@@H]2O [Paclitaxel, reference compound] | – | – | 2.2 | 34 | 16 | > 3000 | >1360 | > 1,360 |
